# Laboratory results: US5543312A, “Pastuerella haemolytica glycoprotease gene and the purified enzyme” (priority 1991, dated 1996)
# Tests used:
# [1] = molecular target: P. haemolytica A1 glycoprotease (Mannheimia haemolytica, UniProt P36175); assay: biochemical; conditions: for Restoration of protease activity by addition of divalent metal ion: after EDTA treatment and dialysis of the enzyme; for Increase of activity by addition of divalent metal ion: native enzyme; for Inhibition of the glycoprotease by anions and acidic amino acids: millimolar concentrations
# P. haemolytica A1 glycoprotease, sequence (P36175 whole entry): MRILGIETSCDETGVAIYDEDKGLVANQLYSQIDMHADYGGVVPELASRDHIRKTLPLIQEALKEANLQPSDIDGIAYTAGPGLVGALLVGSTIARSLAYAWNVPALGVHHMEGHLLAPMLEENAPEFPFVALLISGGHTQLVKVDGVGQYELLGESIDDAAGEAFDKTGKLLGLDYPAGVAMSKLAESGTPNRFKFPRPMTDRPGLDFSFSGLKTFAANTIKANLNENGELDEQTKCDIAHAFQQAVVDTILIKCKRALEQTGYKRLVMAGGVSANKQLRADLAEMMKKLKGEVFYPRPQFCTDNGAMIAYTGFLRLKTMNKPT
# [2] = molecular target: P. haemolytica A1 protease (Mannheimia haemolytica, UniProt P36175); format: biochemical; conditions: SDS-PAGE and Coomassie blue staining
# P. haemolytica A1 protease, sequence (P36175 whole entry, looked up): as the sequence (P36175 whole entry) above
# [3] = system: P. haemolytica glycoprotease; assay: Cleavage of cell surface antigens of surface-125I-iodinated KG1a cells, immunoprecipitation and SDS-PAGE; format: cell-based
# Excerpt: In our previous work, we have concentrated on the cleavage of human erythrocyte glycophorin A by the P. haemolytica glycoprotease Udoh et al. 1986. Univ. of Guelph; Abdullah et al. 1988. Proc. Canad. Fed. Biol. Socs.; Abdullah et al. 1990. Biochem. Soc. Trans. This substrate is well-characterized erythrocyte surface O-sialoglycoprotein and is readily available for biochemical analysis. However, it is clear that the physiological targets of this enzyme are not erthrocyte antigens but are probably O-sialoglycoproteins on the surfaces of leukocytes or endothelial cells. SDS-PAGE analysis of immunoprecipitations performed with specific monoclonal antibodies on lysates of surface-^125 I-iodinated KG1a cells, a primitive myeloid/T-lymphois stem cell line Koeffler et al. 1977. Science 200, have shown that the O-sialoglycoprotein cell surface antigens CD34 Civin et al. 1989. Leucocyte Typing IV, Oxford Univ. Press. CD43/leucosialin Killeen et al. 1987. EMBO J.; Pallant et al. 1989. PNAS, CD44/lyaluronic acid receptor Stamenkovic et al. 1989. Cell; Aruffo et al. 1990. Cell and CD45/leucocyte common antigen Thomas et al. 1989. Annu. REv. Immunol.; Pulido et al. 1989. J. Immunol. are all cleaved by the glycoprotease. Although the glycoprotease-sensitive structures contain some N-linked glycans they are all extensively glycosylated with O-linked carbohydrates. […]
# [4] = pH 7.4, read-out: Activity (% of enzyme activity in the absence of any inhibitor)
compound,measurement,setting,value
O=C1O[C@H]([C@@H](O)CO)C(O)=C1O [Ascorbate],inhibition at 11400 µM,[1]; [4],60%
CCN1C(=O)C=CC1=O [N-ethylmaleimide],Inhibition of glycoprotease by conventional protease inhibitors,[1],No inhibition
[Ca+2] [Ca^2+],Restoration of protease activity by addition of divalent metal ion,[1],failed to restore
same,Increase of activity by addition of divalent metal ion,[1],failed to increase
N[C@@H](CCC(=O)O)C(=O)O [glutamate],Inhibition of the glycoprotease by anions and acidic amino acids,[1],Some inhibitions
[Zn+2] [Zn^2+],Restoration of protease activity by addition of divalent metal ion,[1],failed to restore
same,Increase of activity by addition of divalent metal ion,[1],failed to increase
insulin chain B,Hydrolysis of protein by active enzyme fractions,[2],did not hydrolyze
bovine insulin chain A,Hydrolysis of protein by active enzyme fractions,[2],did not hydrolyze
Cc1ccc(S(=O)(=O)NC(Cc2ccccc2)C(=O)CCl)cc1 (stereo not shown) [tosylphenylalanyl chloromethylketone],Inhibition of glycoprotease by conventional protease inhibitors,[1],No inhibition
Cc1ccc(S(=O)(=O)NC(CCCCN)C(=O)CCl)cc1 (stereo not shown) [tosyl-lysl chloromethylketone],Inhibition of glycoprotease by conventional protease inhibitors,[1],No inhibition
cytochrome c,Hydrolysis of protein by active enzyme fractions,[2],did not hydrolyze
CD71/transferrin receptor: N-linked glycoprotein which lacks O-sialo-residues,Cleavage of cell surface antigen by the glycoprotease,[3],resistant
O=C(O)c1cc[c]([Hg][Cl])cc1 [p-chloromercuribenzoate],Inhibition of glycoprotease by conventional protease inhibitors,[1],No inhibition
[Mg+2] [Mg^2+],Restoration of protease activity by addition of divalent metal ion,[1],failed to restore
same,Increase of activity by addition of divalent metal ion,[1],failed to increase
[Fe+2] [Fe^2+],Restoration of protease activity by addition of divalent metal ion,[1],failed to restore
same,Increase of activity by addition of divalent metal ion,[1],failed to increase
"CC(C)C[C@H](NP(=O)(O)O[C@H]1O[C@@H](C)[C@H](O)[C@@H](O)[C@H]1O)C(=O)N[C@@H](Cc1c[nH]c2ccccc12)C(=O)O [Phosphoramidon, N-(β-L-rhamnopyranosyl-oxyhydroxyphosphinyl)-L-leucyl-L-tryptophan]",Inhibition of the glycoprotease (in words),[1]; concentration not given,without significant effect
same,inhibition at 900 µM,[1]; [4],95%
O=C(O)c1cc[c]([Hg+])cc1.[OH-] [p-hydroxymercuribenzoate],Inhibition of glycoprotease by conventional protease inhibitors,[1],No inhibition
"c1cnc2c(c1)ccc1cccnc12 [1,10-phenanthroline]",Inhibition of the protease by prolonged treatment,[1]; prolonged treatment (24 h),inhibited
"CD44/lyaluronic acid receptor: O-sialoglycoprotein cell surface antigen, hyaluronate receptor",Cleavage of cell surface antigen by the glycoprotease,[3],cleaved
O=S(=O)(F)Cc1ccccc1 [phenylmethanesulfonyl-fluoride],Inhibition of glycoprotease by conventional protease inhibitors,[1],No inhibition
N[C@@H](CC(=O)O)C(=O)O [aspartate],Inhibition of the glycoprotease by anions and acidic amino acids,[1],Some inhibitions
